According to PubChem BioAssay (NCI):
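Exposure lasted 48 hours, with cells grown in 96-well plates and compounds tested at five concentrations. GI50: concentration for 50% inhibition of growth. TGI denotes the concentration required for complete inhibition of growth.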

Tests used:
Assay in all cases: inhibition of tumour cell growth, NCI panel, 48 h
SW-620 colon = test system: SW-620 colon
OVCAR-8 ovarian = test system: OVCAR-8 ovarian
U251 CNS = test system: U251 CNS
A549 NSCLC = test system: A549 NSCLC
SR leukemia = test system: SR leukemia
HL-60(TB) leukemia = test system: HL-60(TB) leukemia
UO-31 renal = test system: UO-31 renal
M14 melanoma = test system: M14 melanoma
T-47D breast = test system: T-47D breast
UACC-257 melanoma = test system: UACC-257 melanoma
MDA-N = test system: MDA-N
PC-3 prostate = test system: PC-3 prostate

Row | Compound | TGI (SW-620 colon) [µM] | TGI (OVCAR-8 ovarian) [µM] | TGI (U251 CNS) [µM] | TGI (A549 NSCLC) [µM] | TGI (SR leukemia) [µM] | TGI (HL-60(TB) leukemia) [µM] | TGI (UO-31 renal) [µM] | GI50 (SW-620 colon) [µM] | GI50 (U251 CNS) [µM] | GI50 (M14 melanoma) [µM] | TGI (M14 melanoma) [µM] | GI50 (T-47D breast) [µM] | TGI (T-47D breast) [µM] | GI50 (UACC-257 melanoma) [µM] | TGI (UACC-257 melanoma) [µM] | GI50 (SR leukemia) [µM] | GI50 (HL-60(TB) leukemia) [µM] | GI50 (UO-31 renal) [µM] | TGI (MDA-N) [µM] | TGI (PC-3 prostate) [µM]
1 | NC(=S)N/N=C/c1nccc2ccccc12 | > 100 | > 100 | > 100 | > 100 | 11.5 | 4.23 | 3.42 | – | – | – | – | – | – | – | – | – | – | – | – | –
2 | c1ccc(N2N=C(c3cccc(Nc4ccncc4)c3)CC2c2ccc3c(c2)OCO3)cc1 (configuration not stated) | 2.54 | – | 3.74 | – | 2.89 | 3.69 | 2.84 | 1.18 | 1.81 | 1.63 | 3.48 | 2.1 | 5.12 | 2 | 4.09 | 0.955 | 1.77 | 1.4 | – | –
3 | CC[C@@H]1ON(C)[C@H]2CN(C)C(=O)[C@@H]12 | > 100 | > 100 | > 100 | > 100 | > 100 | > 100 | > 100 | – | – | – | > 100 | – | > 100 | – | > 100 | – | – | – | > 100 | > 100
4 | COc1nc2ccc(COc3ccc(C(=O)NC(CCC(=O)O)C(=O)O)cc3)cc2nc1OC (configuration not stated) | > 10 | – | > 10 | > 10 | > 10 | > 10 | > 10 | – | – | – | > 10 | – | > 10 | – | > 10 | – | – | – | > 10 | > 10
5 | Cc1nc2c(c(=O)[nH]1)S/C(=C(/C#N)c1nc3ccccc3[nH]1)N2c1ccccc1 | > 100 | > 100 | > 100 | > 100 | > 100 | > 100 | > 100 | – | – | – | > 100 | – | – | – | > 100 | – | – | – | – | –
6 | CC(=O)N1N=C(c2ccc3ccccc3c2O)CC1c1cccs1 (configuration not stated) | > 100 | > 100 | > 100 | 94.9 | 14.3 | – | 64.1 | – | – | – | 39.1 | – | > 100 | – | > 100 | – | – | – | > 100 | > 100
7 | COc1ccc2c(c1O)-c1cc(O)cc3c1[C@@H](C2)N(C)CC3 | 145 | 8.27 | 250 | 138 | – | 191 | 103 | – | – | – | – | – | – | – | 138 | – | – | – | – | –
8 | O=C1C(Cl)N(c2cccc(Cl)c2)C1c1c[nH]c2ccccc12 (configuration not stated) | > 100 | > 100 | > 100 | > 100 | > 100 | > 100 | > 100 | – | – | – | > 100 | – | – | – | > 100 | – | – | – | – | –
9 | COc1ccc(-c2csc(=Nc3ccccc3)n2CCCN(C)C)cc1 | – | 75.6 | > 100 | 36.3 | 67.1 | > 100 | 44.9 | – | – | – | 24.4 | – | – | – | 37.5 | – | – | – | > 100 | 30.2
10 | COc1cc(C2S/C(=C/c3ccccc3)C(=O)N2c2ccc(NC(C)=O)cc2)cc(OC)c1OC (configuration not stated) | – | 76.9 | 38.5 | > 100 | > 100 | – | > 100 | – | – | – | 56.9 | – | 55.1 | – | > 100 | – | – | – | 63.4 | 48.1
